Columns and labels:
Assay type in all cases: in vitro ADME
[1] = Caco-2 permeability assay; conditions: human, pH 7.4; Caco-2, BA
[2] = Metabolic stability in hepatocytes, mouse; conditions: hepatocytes (cryopreserved), read-out: Mouse Clint (μL/min/10^6 cells)
Procedure: (§1) The aim of this assay is to determine the metabolic stability of the compound in hepatocytes (cryopreserved) of different species (mouse CD1, rat Sprague Dawley, dog Beagle). Low hepatocyte stability may result in the formation of unwanted metabolites, high clearance, and therefore is not desirable. The decrease in parent was assessed by measuring the percentage remaining by LC-MS/MS analysis. The batches of hepatocytes were tested for quality control using Testosterone, Umbelliferone and Caffeine as reference compounds.
A 10 mM stock solution of test compound in DMSO was first diluted in DMSO to 3 mM, and then in modified Krebs-Henseleit buffer (Sigma, K3753) to 5 μM. This compound dilution was added to a suspension of pooled cryopreserved hepatocytes (BioIVT) at 37° C. under gentle shaking. Final reaction conditions were: 1 μM of test compound, <0.1% DMSO, 0.5 million viable hepatocytes/mL, and 75 μL incubation volume.
After 0, 10, 20, 45, 90, 120 and 180 min of incubation, the reaction was terminated with 3 volumes of MeCN:MeOH (2:1) containing diclofenac as analytical internal standard. Samples were mixed, centrifuged and the supernatant analyzed by LC-MS/MS (systems API4000). The instrument responses (ratios of test compound and internal standard peak areas) were referenced to the zero time point samples (considered as 100%) in order to determine the percentage of compound remaining. Plots of percentage compound remaining were used to determine the intrinsic clearance in the hepatocyte incubations.
(§2) Testosterone (1 μM) and Umbelliferone (1 μM) and Caffeine (1 μM) were used as reference compounds, being unstable and stable compounds respectively. If the hepatocyte stability values for these controls are not in the range determined by the historical data, the assay is not validated.

[3] = Plasma protein binding (equilibrium dialysis), dog; conditions: for fraction unbound at 4 h, 5 µM: equilibrium dialysis, read-out: PPB (%), dog (converted); for recovery at 4 h, 5 µM: plasma (freshly thawed), PPB assay recovery
Procedure: Prior to the start of the experiment, dialysis membranes (membrane strips, MW cut-off 12-14 kDa, HTDialysis, Cat.NoJl 101) are soaked in deionized water for 60 min, transferred and left overnight in 20% EtOH. The day of experiment, a 10 mM stock solution of the compound in DMSO is diluted with a factor 10 in DMSO. This solution is further diluted in freshly thawed human, rat, mouse or dog plasma (BioIVT) with a final concentration of 5 μM and final DMSO concentration of 0.5%.
From this solution, an aliquot of 50 μL was taken and matrix matched with an equivalent volume of PBS for the recovery plate, after which 6 volumes of STOP solution were added to the recovery plate. For these recovery plates, no incubation is done.
Equilibrium Dialysis Device (96-well, model HTD96b, HTDialysis, Cat. No. #1006) is assembled according to manufacturer's instructions. Immediately after assembly, a volume of 100 μL of plasma (spiked with compound) is placed on one side of the well and another 100 μL of blank PBS buffer are added to the other side, respectively. Each compound is tested in duplicate. Acebutolol and Nicardipine are used as low and very high binding controls, except for the mouse, Caffeine is used as low binder instead Acebutolol. If the PPB values for these controls are not in the range determined by the historical data, the assay is not validated.
The plate is incubated for 4 h at 37° C. while shaking at 230 rpm. Thereafter, an aliquot of 50 μL is taken from each side of the well and matrix matched (mix of equal volumes of spiked plasma with blank PBS buffer and samples from buffer compartment with blank plasma). Matrix matched samples are further mixed with 3 volumes of STOP solution (acetonitrile/MeOH 2/1 with diclofenac as internal standard). After brief mixing and centrifugation (at 2400 rpm for 15 min, at +4° C.), the supernatant is filtered and transferred into new 96-well plates for analysis on LC-MS/MS (systems API4000).
The percentage of plasma protein bound compound and recovery were calculated using following equations:
with: • Cplasma=peak area of the compound in the plasma/peak area of the IS in the plasma • Cbuffer=peak area of the compound in the buffer/peak area of the IS in the buffer • ‘Concentration’ is the ratio between compound and IS peak areas
The recovery is a control, which allows to be sure that the compound has not a non-specific binding to the plates or is not stable in the plasma in these conditions:
with: • PBS=(ratio of the peak area of the compound/peak area of the IS) in the PBS compartment after 4 h • Plasma=(ratio of the peak area of the compound/peak area of IS) in the plasma compartment after 4 h • Recov=Recovery=ratio of the peak are of the compound I the well recovery/peak area of the IS in the well recovery at TO […]

[4] = Metabolic stability in hepatocytes, dog; conditions: Beagle, pooled cryopreserved hepatocytes, read-out: Dog Clint (μL/min/10^6 cells)
Procedure: as §1
A 10 mM stock solution of test compound in DMSO was first diluted in DMSO to 3 mM, and then in modified Krebs-Henseleit buffer (Sigma, K3753) to 5 μM. This compound dilution was added to a suspension of pooled cryopreserved hepatocytes (BioIVT) at 37° C. under gentle shaking. […]
After 0, 10, 20, 45, 90, 120 and 180 min of incubation, the reaction was terminated with 3 volumes of MeCN:MeOH (2:1) containing diclofenac as analytical internal standard. Samples were mixed, centrifuged and the supernatant analyzed by LC-MS/MS (systems API4000). […]
as §2

| Compound | hepatocyte CLint [2] [µL/min/1e6 cells] | fraction unbound at 4 h, 5 µM [3] | recovery at 4 h, 5 µM [3] [%] | hepatocyte CLint at 1 µM [4] [µL/min/1e6 cells] | Papp B→A at 90 min, 10 µM [1] [×10⁻⁶ cm/s] |
| --- | --- | --- | --- | --- | --- |
| CCC1CN(c2cc(CC(C)C)cc(F)c2-c2nn[nH]n2)CCN1Cc1cccnn1 (stereo not shown) [Compound A-178, 3-[[2-ethyl-4-[3-fluoro-5-isobutyl-2-(2H-tetrazol-5-yl)phenyl]piperazin-1-yl]methyl]pyridazine] | 0.8 | – | – | – | 8.6 |
| CC(C)Cc1cc(F)c(-c2nn[nH]n2)c(N2CCN(Cc3ccccn3)[C@@H](C)C2)c1 [Compound A-217, (2S)-4-[3-fluoro-5-isobutyl-2-(2H-tetrazol-5-yl)phenyl]-2-methyl-1-(2-pyridylmethyl)piperazine] | – | 0.042 | 96 | < 5.1 | – |
| CCC1CN(Cc2cccnn2)CCN1c1cc(CC(C)C)cc(F)c1-c1nn[nH]n1 (stereo not shown) [Compound A-181, 3-[[3-ethyl-4-[3-fluoro-5-isobutyl-2-(2H-tetrazol-5-yl)phenyl]piperazin-1-yl]methyl]pyridazine] | 1 | – | – | – | – |

Continued, in another order:

| hepatocyte CLint [2] [µL/min/1e6 cells] | fraction unbound at 4 h, 5 µM [3] | recovery at 4 h, 5 µM [3] [%] | hepatocyte CLint at 1 µM [4] [µL/min/1e6 cells] | Compound | Papp B→A at 90 min, 10 µM [1] [×10⁻⁶ cm/s] |
| --- | --- | --- | --- | --- | --- |
| 4 | – | – | – | CC(C)Cc1cc(F)c(-c2nn[nH]n2)c(N2CCN(Cc3cccnn3)C(C)C2)c1 (stereo not shown) [Compound A-173, 3-[[4-[3-fluoro-5-isobutyl-2-(2H-tetrazol-5-yl)phenyl]-2-methyl-piperazin-1-yl]methyl]pyridazine] | – |
| < 5.4 | 0.062 | 97 | < 5.1 | CC(C)Cc1cc(F)c(-c2nn[nH]n2)c(N2CCN(Cc3cccnn3)[C@@H](C)C2)c1 [Compound A-174, 3-[[(2S)-4-[3-fluoro-5-isobutyl-2-(2H-tetrazol-5-yl)phenyl]-2-methyl-piperazin-1-yl]methyl]pyridazine] | 2.4 |
| 2 | – | – | – | CC(C)Cc1cc(F)c(-c2nn[nH]n2)c(N2CC(C)N(Cc3cccnn3)CC2C)c1 (stereo not shown) [Compound A-183, 3-[[4-[3-fluoro-5-isobutyl-2-(2H-tetrazol-5-yl)phen-yl]-2,5-dimethyl-piperazin-1-yl]-methyl]pyridazine] | – |

Source: US20240368133A1, “Compounds for the Treatment of Pain, in Particular, Neuropathic Pain, and/or Other Diseases or Disorders that are Associated with AT2R and/or AT2R Mediated Signaling” (Confo Therapeutics N.V., priority 2021, published 2024)
